Measured values taken from patent publication US20230053540A1, “TREATMENT OF LIVER INJURY” (Massachusetts Institute of Technology, priority 2019, published 2023).

Test system: hepatocytes
Assay: Seq-Well scRNA-Seq of hepatocytes after APAP overdose (signature scores, DEG vs untreated)
Assay type: in vivo, mouse
Conditions: A6 vs UT

CC(=O)Nc1ccc(O)cc1 [APAP, acetaminophen]
Ash11 A6logFC: 0.2657 | Asl avg_logFC: 0.5586 | Atf4 A6logFC: 0.3411 | Atf6 A6logFC: 0.3778 | Atox1 avg_logFC: −0.4462 | Atox1 pct.1: 0.382 | Atp1a1 avg_logFC: 0.4191 | Atp1a1 pct.1: 0.53 | Atp1b1 A6logFC: 0.3702 | Atp2a2 avg_logFC: 0.495 | Atp2b1 A6logFC: 0.3321 | Atp5e avg_logFC: −0.6502 | Atp5f1 avg_logFC: −0.5171 | Atp5f1 pct.1: 0.69 | Atp5j2 avg_logFC: −0.5131 | Atp5j2 pct.1: 0.606 | Atp5k avg_logFC: −0.4773 | Atp5k pct.1: 0.368 | Atp13a3 avg_logFC: 0.3945 | Atp13a3 pct.1: 0.532 | Atp5h avg_logFC: −0.6398 | B2m avg_logFC: −0.3304 | B2m pct.1: 0.871 | B4galt5 avg_logFC: 0.4763 | BC005537 A6logFC: 0.3543 | Bach1 avg_logFC: 0.8323 | Bbox1 avg_logFC: −0.4082 | Bbox1 pct.1: 0.308 | Bc1af1 A6logFC: 0.2685 | Bcl2l1 avg_logFC: 0.7751 | Bcl3 avg_logFC: 0.289 | Bcl3 pct.1: 0.277 | Bclaf1 avg_logFC: 0.2685 | Bclaf1 pct.1: 0.372 | Bdh1 avg_logFC: −0.2936 | Bdh1 pct.1: 0.315 | Bdhl A6logFC: −0.2936 | Bet1 A6logFC: −0.2966 | Birc6 A6logFC: 0.3444 | Birc6 avg_logFC: 0.3444 | Birc6 pct.1: 0.446 | Blvrb avg_logFC: −0.5451 | Blvrb pct.1: 0.286 | Bphl avg_logFC: −0.4075 | Bphl pct.1: 0.339 | Brd2 A6logFC: 0.5715 | Brd2 avg_logFC: 0.5715 | Brd2 pct.1: 0.542 | Bst2 A6logFC: −0.3156 | Btaf1 A6logFC: 0.2755 | Btaf1 avg_logFC: 0.2755 | Btaf1 pct.1: 0.284 | Btg1 avg_logFC: 0.458 | Btg1 pct.1: 0.356 | Btg2 avg_logFC: 0.8321 | Bzw1 avg_logFC: 0.2948 | Bzw1 pct.1: 0.475 | C1qa avg_logFC: 0.5148 | C1qa pct.1: 0.174 | C1qc avg_logFC: 0.5861 | C1qc pct.1: 0.172 | C8g avg_logFC: −0.6545 | C1d A6logFC: −0.2553 | C1d avg_logFC: −0.2553 | C1d pct.1: 0.208 | C230081A13Rik avg_logFC: 0.427 | Cald1 avg_logFC: 0.3737 | Cald1 pct.1: 0.766 | Cap1 A6logFC: 0.3251 | Cap1 avg_logFC: 0.3251 | Cap1 pct.1: 0.356 | Car3 avg_logFC: −1.036 | Car5a A6logFC: −0.3088 | Cbr1 avg_logFC: 0.2847 | Cbr1 pct.1: 0.494 | Ccbl1 avg_logFC: −0.3649 | Ccbl1 pct.1: 0.205 | Ccdc50 A6logFC: 0.2858 | Ccdc50 avg_logFC: 0.2858 | Ccdc50 pct.1: 0.401 | Ccl6 avg_logFC: 0.7891 | Ccnl1 A6logFC: 0.2566 | Ccnl1 avg_logFC: 0.2566 | Ccnl1 pct.1: 0.351 | Ccs avg_logFC: −0.4267 | Ccs pct.1: 0.42 | Cd5l avg_logFC: 0.6935 | Cd14 avg_logFC: 0.3621 | Cd44 avg_logFC: 0.3037 | Cd44 pct.1: 0.115 | Cd53 avg_logFC: 0.2656 | Cd53 pct.1: 0.103 | Cd74 avg_logFC: 0.4539 | Cd74 pct.1: 0.155 | Cd97 avg_logFC: 0.3458 | Cd97 pct.1: 0.115 | Cd163 avg_logFC: 0.4408 | Cd163 pct.1: 0.146 | Cd302 avg_logFC: −0.5499 | Cdh1 A6logFC: 0.2697 | Cdh1 avg_logFC: 0.2697 | Cdh1 pct.1: 0.327 | Cdkn1a avg_logFC: 1.215 | Cebpa avg_logFC: −0.3916 | Cebpa pct.1: 0.442 | Cela1 A6logFC: −0.2723 | Cep85 A6logFC: 0.2839 | Cep85 avg_logFC: 0.2839 | Cep85 pct.1: 0.313 | Cers6 avg_logFC: 0.5328 | Ces3a avg_logFC: −0.5253 | Ces3b avg_logFC: −0.3664 | Ces3b pct.1: 0.57 | Cfhr1 A6logFC: −0.3253 | Cfp avg_logFC: 0.3562 | Cfp pct.1: 0.143 | Chac2 avg_logFC: −0.2865 | Chac2 pct.1: 0.057 | Chchd1 avg_logFC: −0.4398 | Chchd1 pct.1: 0.21 | Chchd2 avg_logFC: −0.5525 | Chchd10 avg_logFC: −0.4019 | Chchd10 pct.1: 0.802 | Chd1 avg_logFC: 0.3788 | Chd1 pct.1: 0.377 | Chic2 avg_logFC: 0.4198 | Chic2 pct.1: 0.37 | Chka avg_logFC: 1.375 | Chmp4b A6logFC: 0.3002 | Chuk A6logFC: 0.3724 | Cidec avg_logFC: 0.2994 | Cldn2 A6logFC: −0.2511 | Cldn14 avg_logFC: 0.3645 | Cldn14 pct.1: 0.32 | Clec4f avg_logFC: 1.108 | Clec4d avg_logFC: 0.2636 | Clec4d pct.1: 0.107 | Clic4 A6logFC: 0.2998 | Clic4 avg_logFC: 0.2998 | Clic4 pct.1: 0.368 | Clqb avg_logFC: 0.6817 | Cltc avg_logFC: 0.785 | Cmbl avg_logFC: −0.4427 | Cmbl pct.1: 0.415 | Cml1 avg_logFC: −0.6142 | Coa6 avg_logFC: −0.4114 | Coa6 pct.1: 0.15 | Coasy A6logFC: −0.2534 | Coasy avg_logFC: −0.2534 | Coasy pct.1: 0.327 | Commd3 A6logFC: −0.2656 | Commd3 avg_logFC: −0.2656 | Commd3 pct.1: 0.274 | Commd6 avg_logFC: −0.3645 | Commd6 pct.1: 0.172 | Cox4i1 avg_logFC: −0.516 | Cox5b avg_logFC: −0.4988 | Cox5b pct.1: 0.425 | Cox6a1 avg_logFC: −0.4872 | Cox6a1 pct.1: 0.675 | Cox6c avg_logFC: −0.8443 | Cox7a2 avg_logFC: −0.6503 | Cox7b avg_logFC: −0.6422 | Cp avg_logFC: 0.2541 | Cp pct.1: 0.89 | Creb3l2 avg_logFC: 0.4272 | Crp avg_logFC: −0.5069 | Crp pct.1: 0.477 | Csad avg_logFC: −0.5598 | Csad pct.1: 0.473 | Csrp3 A6logFC: −0.294 | Ctnnd1 A6logFC: 0.2518 | Ctnnd1 avg_logFC: 0.2518 | Ctnnd1 pct.1: 0.358 | Ctsb A6logFC: 0.5213 | Ctsb avg_logFC: 0.5213 | Ctsb pct.1: 0.804 | Ctsc A6logFC: 0.361 | Ctsl avg_logFC: 0.5301 | Ctss avg_logFC: 0.7642 | Cu11 A6logFC: 0.2592 | Cu13 A6logFC: 0.2788 | Cul1 avg_logFC: 0.2592 | Cul1 pct.1: 0.425 | Cul3 avg_logFC: 0.2788 | Cul3 pct.1: 0.415 | Cxadr avg_logFC: 0.6985 | Cxcl12 avg_logFC: −0.3058 | Cxcl12 pct.1: 0.251 | Cyb5 avg_logFC: −0.7102 | Cybb A6logFC: 0.3778 | Cyp4a10 avg_logFC: 0.4566 | Cyp4a10 pct.1: 0.687 | Cyp4a14 avg_logFC: 1.122 | Cyp4f15 A6logFC: −0.2998 | D10Wsu102e avg_logFC: 0.5878 | Dbi avg_logFC: −0.7164 | Dcaf11 avg_logFC: −0.2817 | Dcaf11 pct.1: 0.446 | Dcxr avg_logFC: −0.4409 | Dcxr pct.1: 0.37 | Ddah1 A6logFC: −0.312
